Results taken from paper PMC10620772, “Design, synthesis, and biological evaluation of new pyrimidine-5-carbonitrile derivatives as novel anti-cancer, dual EGFR^WT/COX-2 inhibitors with docking studies” (RSC Advances, 2023).

Columns and labels:
Test in all cases: NCI60 antitumor screening
Assay type in all cases: cell-based, human
DU-145 = conditions: Homo sapiens, DU-145; read-out: growth inhibition percent (GI%)
UACC-62 = conditions: Homo sapiens; 10 μM single dose; UACC-62 (melanoma); read-out: growth inhibition percent (GI%)
T-47D = conditions: Homo sapiens, T47D; 10 μM single dose; T-47D (breast cancer); read-out: growth inhibition percent (GI%)
TK-10 = conditions: Homo sapiens; 10 μM single dose; TK-10 (renal cancer); read-out: growth inhibition percent (GI%)
CCRF-CEM = conditions: Homo sapiens; 10 μM single dose; CCRF-CEM (leukaemia); read-out: growth inhibition percent (GI%)
NCI-H522 = conditions: Homo sapiens; 10 μM single dose; NCI-H522 (non-small cell lung cancer); read-out: growth inhibition percent (GI%)
HL-60(TB) = conditions: Homo sapiens; 10 μM single dose; HL-60(TB) (leukaemia); read-out: growth inhibition percent (GI%)
A498 = conditions: Homo sapiens; 10 μM single dose; A498 (renal cancer); read-out: growth inhibition percent (GI%)
K-562 = conditions: for inhibition at 10 µM: Homo sapiens, 10 μM single dose, (leukaemia), read-out: growth inhibition percent (GI%)
PC-3 = conditions: Homo sapiens; 10 μM single dose; PC-3 (prostate cancer); read-out: growth inhibition percent (GI%)
NCI-H226 = conditions: for inhibition at 10 µM: Homo sapiens, 10 μM single dose, NCI-H226 (non-small cell lung cancer), read-out: growth inhibition percent (GI%)
HOP-92 = conditions: Homo sapiens; 10 μM single dose; HOP-92 (non-small cell lung cancer); read-out: growth inhibition percent (GI%)
IGROV1 = conditions: Homo sapiens, IGROV-1; 10 μM single dose; IGROV1 (ovarian cancer); read-out: growth inhibition percent (GI%)
SW-620 = conditions: Homo sapiens; 10 μM single dose; SW-620 (colon cancer); read-out: growth inhibition percent (GI%)
MDA-MB-468 = conditions: Homo sapiens; 10 μM single dose; MDA-MB-468 (breast cancer); read-out: growth inhibition percent (GI%)
HCT-15 = conditions: Homo sapiens; 10 μM single dose; HCT-15 (colon cancer); read-out: growth inhibition percent (GI%)
SK-MEL-5 = conditions: Homo sapiens; 10 μM single dose; SK-MEL-5 (melanoma); read-out: growth inhibition percent (GI%)
MDA-MB-435 = conditions: Homo sapiens; 10 μM single dose; MDA-MB-435 (melanoma); read-out: growth inhibition percent (GI%)
OVCAR-3 = conditions: Homo sapiens; 10 μM single dose; OVCAR-3 (ovarian cancer); read-out: growth inhibition percent (GI%)
HOP-62 = conditions: for inhibition at 10 µM: Homo sapiens, 10 μM single dose, HOP-62 (non-small cell lung cancer), read-out: growth inhibition percent (GI%)
SK-MEL-28 = conditions: Homo sapiens; 10 μM single dose; SK-MEL-28 (melanoma); read-out: growth inhibition percent (GI%)
HT29 = conditions: Homo sapiens, HT-29; 10 μM single dose; HT29 (colon cancer); read-out: growth inhibition percent (GI%)
A549/ATCC = conditions: Homo sapiens; 10 μM single dose; A549/ATCC (non-small cell lung cancer); read-out: growth inhibition percent (GI%)
NCI-H322M = conditions: Homo sapiens; 10 μM single dose; NCI-H322M (non-small cell lung cancer); read-out: growth inhibition percent (GI%)
786–0 = conditions: for inhibition at 10 µM: Homo sapiens, 10 μM single dose, 786–0 (renal cancer), read-out: growth inhibition percent (GI%)
UO-31 = conditions: Homo sapiens; 10 μM single dose; UO-31 (renal cancer); read-out: growth inhibition percent (GI%)
M14 = conditions: Homo sapiens; 10 μM single dose; M14 (melanoma); read-out: growth inhibition percent (GI%)
MALME-3M = conditions: Homo sapiens; 10 μM single dose; MALME-3M (melanoma); read-out: growth inhibition percent (GI%)
LOX IMVI = conditions: Homo sapiens; 10 μM single dose; LOX IMVI (melanoma); read-out: growth inhibition percent (GI%)
RXF 393 = conditions: for inhibition at 10 µM: Homo sapiens, 10 μM single dose, RXF 393 (renal cancer), read-out: growth inhibition percent (GI%)
UACC-257 = conditions: Homo sapiens; 10 μM single dose; UACC-257 (melanoma); read-out: growth inhibition percent (GI%)
NCI-H23 = conditions: Homo sapiens; 10 μM single dose; NCI-H23 (non-small cell lung cancer); read-out: growth inhibition percent (GI%)
OVCAR-8 = conditions: Homo sapiens; 10 μM single dose; OVCAR-8 (ovarian cancer); read-out: growth inhibition percent (GI%)
SN12C = conditions: Homo sapiens; 10 μM single dose; SN12C (renal cancer); read-out: growth inhibition percent (GI%)
HCT-116 = conditions: Homo sapiens; 10 μM single dose; HCT-116 (colon cancer); read-out: growth inhibition percent (GI%)
SF-539 = conditions: for inhibition at 10 µM: Homo sapiens, 10 μM single dose, SF-539 (CNS cancer), read-out: growth inhibition percent (GI%)
RPMI-8226 = conditions: Homo sapiens; 10 μM single dose; RPMI-8226 (leukaemia); read-out: growth inhibition percent (GI%)
CAKI-1 = conditions: Homo sapiens; 10 μM single dose; CAKI-1 (renal cancer); read-out: growth inhibition percent (GI%)

N#Cc1c(-c2ccc(F)cc2)nc(SCc2ccccc2)nc1N1CCN(c2ccccc2)CC1 [4m, 2-(Benzylthio)-4-(4-fluorophenyl)-6-(4-phenylpiperazin-1-yl) pyrimidine-5-carbonitrile]
inhibition at 10 µM (DU-145): < 10%
inhibition at 10 µM (UACC-62): 16.2%
inhibition at 10 µM (T-47D): 15.1%
inhibition at 10 µM (TK-10): < 10%
inhibition at 10 µM (CCRF-CEM): 11.1%
inhibition at 10 µM (NCI-H522): < 10%
inhibition at 10 µM (HL-60(TB)): < 10%
inhibition at 10 µM (A498): < 10%
inhibition at 10 µM (K-562): 10.6%
inhibition at 10 µM (PC-3): < 10%
inhibition at 10 µM (NCI-H226): < 10%
inhibition at 10 µM (HOP-92): < 10%
inhibition at 10 µM (IGROV1): < 10%
inhibition at 10 µM (SW-620): < 10%
inhibition at 10 µM (MDA-MB-468): < 10%
inhibition at 10 µM (HCT-15): 10.8%
inhibition at 10 µM (SK-MEL-5): < 10%
inhibition at 10 µM (MDA-MB-435): < 10%
inhibition at 10 µM (OVCAR-3): < 10%
inhibition at 10 µM (HOP-62): < 10%
inhibition at 10 µM (SK-MEL-28): < 10%
inhibition at 10 µM (HT29): < 10%
inhibition at 10 µM (A549/ATCC): < 10%
inhibition at 10 µM (NCI-H322M): < 10%
inhibition at 10 µM (786–0): < 10%
inhibition at 10 µM (UO-31): < 10%
inhibition at 10 µM (M14): < 10%
inhibition at 10 µM (MALME-3M): < 10%
inhibition at 10 µM (LOX IMVI): < 10%
inhibition at 10 µM (RXF 393): < 10%
inhibition at 10 µM (UACC-257): < 10%
inhibition at 10 µM (NCI-H23): < 10%
inhibition at 10 µM (OVCAR-8): < 10%
inhibition at 10 µM (SN12C): < 10%
inhibition at 10 µM (HCT-116): < 10%
inhibition at 10 µM (SF-539): < 10%
inhibition at 10 µM (RPMI-8226): 14.2%
inhibition at 10 µM (CAKI-1): 10.7%

CN1CCN(c2nc(SCc3ccccc3)nc(-c3ccc(F)cc3)c2C#N)CC1 [4i, 2-(Benzylthio)-4-(4-fluorophenyl)-6-(4-methylpiperazin-1-yl) pyrimidine-5-carbonitrile]
inhibition at 10 µM (DU-145): < 10%
inhibition at 10 µM (UACC-62): 19.6%
inhibition at 10 µM (T-47D): 42.5%
inhibition at 10 µM (TK-10): < 10%
inhibition at 10 µM (CCRF-CEM): 37.9%
inhibition at 10 µM (NCI-H522): 31.7%
inhibition at 10 µM (HL-60(TB)): 36.5%
inhibition at 10 µM (A498): 12.5%
GI% (K-562; 10 μM one-dose, Table 1): 73.15%
inhibition at 10 µM (K-562): 73.2%
inhibition at 10 µM (PC-3): 31.9%
GI% (NCI-H226; 10 μM one-dose, Table 1): — (GI value > 70%)
inhibition at 10 µM (NCI-H226): < 10%
inhibition at 10 µM (HOP-92): 22.7%
inhibition at 10 µM (IGROV1): < 10%
inhibition at 10 µM (SW-620): 10%
inhibition at 10 µM (MDA-MB-468): 29.2%
inhibition at 10 µM (HCT-15): 46.8%
inhibition at 10 µM (SK-MEL-5): 33.6%
inhibition at 10 µM (MDA-MB-435): 12.8%
inhibition at 10 µM (OVCAR-3): 14.4%
GI% (HOP-62; 10 μM one-dose, Table 1): — (GI value > 70%)
inhibition at 10 µM (HOP-62): 10.3%
inhibition at 10 µM (SK-MEL-28): < 10%
inhibition at 10 µM (HT29): 67%
inhibition at 10 µM (A549/ATCC): 38.3%
inhibition at 10 µM (NCI-H322M): 16%
GI% (786–0; 10 μM one-dose, Table 1): — (GI value > 70%)
inhibition at 10 µM (786–0): 29.3%
inhibition at 10 µM (UO-31): 36%
inhibition at 10 µM (M14): 18.1%
inhibition at 10 µM (MALME-3M): < 10%
inhibition at 10 µM (LOX IMVI): 25.4%
GI% (RXF 393; 10 μM one-dose, Table 1): — (GI value > 70%)
inhibition at 10 µM (RXF 393): 49.7%
inhibition at 10 µM (UACC-257): 27.8%
inhibition at 10 µM (NCI-H23): < 10%
inhibition at 10 µM (OVCAR-8): 14.1%
inhibition at 10 µM (SN12C): 12.6%
inhibition at 10 µM (HCT-116): 45.8%
GI% (SF-539; 10 μM one-dose, Table 1): — (GI value > 70%)
inhibition at 10 µM (SF-539): 14.4%
inhibition at 10 µM (RPMI-8226): 56.4%
inhibition at 10 µM (CAKI-1): 37.9%

N#Cc1c(-c2ccc(F)cc2)nc(SCc2ccc([N+](=O)[O-])cc2)nc1N1CCNCC1 [4g, 4-(4-Fluorophenyl)-2-((4-nitrobenzyl)thio)-6-(piperazin-1-yl) pyrimidine-5-carbonitrile]
inhibition at 10 µM (DU-145): < 10%
inhibition at 10 µM (UACC-62): < 10%
inhibition at 10 µM (T-47D): < 10%
inhibition at 10 µM (TK-10): < 10%
inhibition at 10 µM (CCRF-CEM): < 10%
inhibition at 10 µM (NCI-H522): < 10%
inhibition at 10 µM (HL-60(TB)): < 10%
inhibition at 10 µM (A498): < 10%
inhibition at 10 µM (K-562): < 10%
inhibition at 10 µM (PC-3): < 10%
inhibition at 10 µM (NCI-H226): < 10%
inhibition at 10 µM (HOP-92): < 10%
inhibition at 10 µM (IGROV1): < 10%
inhibition at 10 µM (SW-620): < 10%
inhibition at 10 µM (MDA-MB-468): < 10%
inhibition at 10 µM (HCT-15): < 10%
inhibition at 10 µM (SK-MEL-5): < 10%
inhibition at 10 µM (MDA-MB-435): < 10%
inhibition at 10 µM (OVCAR-3): < 10%
inhibition at 10 µM (HOP-62): < 10%
inhibition at 10 µM (SK-MEL-28): < 10%
inhibition at 10 µM (HT29): < 10%
inhibition at 10 µM (A549/ATCC): < 10%
inhibition at 10 µM (NCI-H322M): < 10%
inhibition at 10 µM (786–0): < 10%
inhibition at 10 µM (UO-31): 11.9%
inhibition at 10 µM (M14): < 10%
inhibition at 10 µM (MALME-3M): < 10%
inhibition at 10 µM (LOX IMVI): < 10%
inhibition at 10 µM (RXF 393): 15.2%
inhibition at 10 µM (UACC-257): < 10%
inhibition at 10 µM (NCI-H23): < 10%
inhibition at 10 µM (OVCAR-8): < 10%
inhibition at 10 µM (SN12C): < 10%
inhibition at 10 µM (HCT-116): < 10%
inhibition at 10 µM (SF-539): < 10%
inhibition at 10 µM (RPMI-8226): < 10%
inhibition at 10 µM (CAKI-1): 11%
